# Values quoted from earlier work in patent US8815898B2, “6,7-disubstituted-sioquinoline derivatives and their use” (Montisera Ltd, priority 2010, dated 2014).
structure (smiles),measurement,setting,value
c1ccc2c(c1)CCNC2 [TIQ],hydroxylated (C4 of the isoquinoline backbone) derivative in the urine,"most abundant metabolite in urine, 4-hydroxy derivative of the parent",2.7%
same,excreted in urine unchanged,share excreted in urine unchanged,76%
same,exit the brain unchanged,share of compound leaving the brain unchanged,90.4%
